Measurements taken from patent US12077503B2, “Substituted cyclic amides and their use as herbicides” (FMC CORPORATION, priority 2015, dated 2024).

Legend:
Assay type in all cases: in vivo
[1] = system: barnyardgrass (Echinochloa crus-galli); assay: Test G Post-Emergence Protocol; conditions: Echinochloa crus-galli, post-emergence, 312 h, read-out: Barnyardgrass damage rating; for pest or weed control at 15.625 g/ha: 15.625 g ai/ha, evaluated after 13 days (100=total damage to plant; 0=no damage to plant); for pest or weed control at 62.5 g/ha: 62.5 g ai/ha; for pest or weed control at 62.5 g/ha / pest or weed control at 250 g/ha: evaluated after 13 days, 100=total damage to plant, 0=no damage to plant; for pest or weed control at 250 g/ha: 250 g ai/ha
Method in brief: (§1)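 Scores run 0 (no damage) to 100 (total damage) and were taken 13 days after spraying. Plants had been raised in pots for 8 days under glasshouse control (24/16 °C, 14 h photoperiod, 65% humidity) and then treated at 15.625, 62.5 or 250 g/ha.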

[2] = system: giant foxtail (Setaria faberi); assay: Test G Post-Emergence Protocol; conditions: Setaria faberi, post-emergence, 312 h, read-out: Foxtail, Giant damage rating; for pest or weed control at 15.625 g/ha: 15.625 g ai/ha, evaluated after 13 days (100=total damage to plant; 0=no damage to plant); for pest or weed control at 62.5 g/ha: 62.5 g ai/ha; for pest or weed control at 62.5 g/ha / pest or weed control at 250 g/ha: evaluated after 13 days, 100=total damage to plant, 0=no damage to plant; for pest or weed control at 250 g/ha: 250 g ai/ha
Method in brief: as §1

[3] = system: ivy-leaved morning glory (Ipomoea hederacea); assay: Test G Post-Emergence Protocol; conditions: Ipomoea, post-emergence, 312 h, read-out: Morningglory, Ivy-leaved damage rating; for pest or weed control at 15.625 g/ha: 15.625 g ai/ha, evaluated after 13 days (100=total damage to plant; 0=no damage to plant); for pest or weed control at 62.5 g/ha: 62.5 g ai/ha; for pest or weed control at 62.5 g/ha / pest or weed control at 250 g/ha: evaluated after 13 days, 100=total damage to plant, 0=no damage to plant; for pest or weed control at 250 g/ha: 250 g ai/ha
Method in brief: as §1

[4] = system: velvetleaf (Abutilon theophrasti); assay: Test G Post-Emergence Protocol; conditions: Abutilon theophrasti, post-emergence, 312 h, read-out: Velvetleaf damage rating; for pest or weed control at 15.625 g/ha: 15.625 g ai/ha, evaluated after 13 days (100=total damage to plant; 0=no damage to plant); for pest or weed control at 62.5 g/ha: 62.5 g ai/ha; for pest or weed control at 62.5 g/ha / pest or weed control at 250 g/ha: evaluated after 13 days, 100=total damage to plant, 0=no damage to plant; for pest or weed control at 250 g/ha: 250 g ai/ha
Method in brief: as §1

[5] = system: corn (Zea mays); assay: Test G Post-Emergence Protocol; conditions: Zea mays, post-emergence, 312 h, read-out: Corn damage rating; for plant injury at 15.625 g/ha: 15.625 g ai/ha, evaluated after 13 days (100=total damage to plant; 0=no damage to plant); for plant injury at 62.5 g/ha: 62.5 g ai/ha; for plant injury at 62.5 g/ha / plant injury at 250 g/ha: evaluated after 13 days, 100=total damage to plant, 0=no damage to plant; for plant injury at 250 g/ha: 250 g ai/ha
Method in brief: as §1

[6] = system: redroot pigweed (Amaranthus retroflexus); assay: Test G Post-Emergence Protocol; conditions: Amaranthus retroflexus, post-emergence, 312 h, read-out: Pigweed, Redroot damage rating; for pest or weed control at 15.625 g/ha: 15.625 g ai/ha, evaluated after 13 days (100=total damage to plant; 0=no damage to plant); for pest or weed control at 62.5 g/ha: 62.5 g ai/ha; for pest or weed control at 62.5 g/ha / pest or weed control at 250 g/ha: evaluated after 13 days, 100=total damage to plant, 0=no damage to plant; for pest or weed control at 250 g/ha: 250 g ai/ha
Method in brief: as §1

[7] = system: barnyardgrass (Echinochloa crus-galli); assay: Test G Pre-Emergence Protocol; conditions: Echinochloa crus-galli, pre-emergence, 312 h, evaluated after 13 days; for pest or weed control at 15.625 g/ha: 15.625 g ai/ha; for pest or weed control at 15.625 g/ha / pest or weed control at 250 g/ha: read-out: Barnyardgrass damage rating (100=total damage to plant; 0=no damage to plant); for pest or weed control at 62.5 g/ha: 62.5 g ai/ha, 100=total damage to plant, 0=no damage to plant, read-out: Barnyardgrass damage rating; for pest or weed control at 250 g/ha: 250 g ai/ha
Method in brief: (§2)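 Spraying took place one day after sowing, at 15.625, 62.5 or 250 g/ha, using an acetone/water (50:50) spray solution containing 0.5% Tween 20. Plants were kept under glasshouse conditions (24/16 °C, 14 h light, 65% humidity, watered twice daily), and injury was rated 0–100 at day 13.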

[8] = system: giant foxtail (Setaria faberi); assay: Test G Pre-Emergence Protocol; conditions: Setaria faberi, pre-emergence, 312 h, evaluated after 13 days; for pest or weed control at 15.625 g/ha: 15.625 g ai/ha; for pest or weed control at 15.625 g/ha / pest or weed control at 250 g/ha: read-out: Foxtail, Giant damage rating (100=total damage to plant; 0=no damage to plant); for pest or weed control at 62.5 g/ha: 62.5 g ai/ha, 100=total damage to plant, 0=no damage to plant, read-out: Foxtail, Giant damage rating; for pest or weed control at 250 g/ha: 250 g ai/ha
Method in brief: as §2

[9] = system: ivy-leaved morning glory (Ipomoea hederacea); assay: Test G Pre-Emergence Protocol; conditions: Ipomoea, pre-emergence, 312 h, evaluated after 13 days; for pest or weed control at 15.625 g/ha: 15.625 g ai/ha; for pest or weed control at 15.625 g/ha / pest or weed control at 250 g/ha: read-out: Morningglory, Ivy-leaved damage rating (100=total damage to plant; 0=no damage to plant); for pest or weed control at 62.5 g/ha: 62.5 g ai/ha, 100=total damage to plant, 0=no damage to plant, read-out: Morningglory, Ivy-leaved damage rating; for pest or weed control at 250 g/ha: 250 g ai/ha
Method in brief: as §2

[10] = system: velvetleaf (Abutilon theophrasti); assay: Test G Pre-Emergence Protocol; conditions: Abutilon theophrasti, pre-emergence, 312 h, evaluated after 13 days; for pest or weed control at 15.625 g/ha: 15.625 g ai/ha; for pest or weed control at 15.625 g/ha / pest or weed control at 250 g/ha: read-out: Velvetleaf damage rating (100=total damage to plant; 0=no damage to plant); for pest or weed control at 62.5 g/ha: 62.5 g ai/ha, 100=total damage to plant, 0=no damage to plant, read-out: Velvetleaf damage rating; for pest or weed control at 250 g/ha: 250 g ai/ha
Method in brief: as §2

[11] = system: corn (Zea mays); assay: Test G Pre-Emergence Protocol; conditions: Zea mays, pre-emergence, 312 h, evaluated after 13 days; for plant injury at 15.625 g/ha: 15.625 g ai/ha; for plant injury at 15.625 g/ha / plant injury at 250 g/ha: read-out: Corn damage rating (100=total damage to plant; 0=no damage to plant); for plant injury at 62.5 g/ha: 62.5 g ai/ha, 100=total damage to plant, 0=no damage to plant, read-out: Corn damage rating; for plant injury at 250 g/ha: 250 g ai/ha
Method in brief: as §2

[12] = system: redroot pigweed (Amaranthus retroflexus); assay: Test G Pre-Emergence Protocol; conditions: Amaranthus retroflexus, pre-emergence, 312 h, evaluated after 13 days; for pest or weed control at 15.625 g/ha: 15.625 g ai/ha; for pest or weed control at 15.625 g/ha / pest or weed control at 250 g/ha: read-out: Pigweed, Redroot damage rating (100=total damage to plant; 0=no damage to plant); for pest or weed control at 62.5 g/ha: 62.5 g ai/ha, 100=total damage to plant, 0=no damage to plant, read-out: Pigweed, Redroot damage rating; for pest or weed control at 250 g/ha: 250 g ai/ha
Method in brief: as §2

CC(C)OC(=O)c1cc([C@H]2CN(C)C(=O)[C@@H]2C(=O)Nc2ccccc2F)ccc1F (racemic) [Compound 1730]
10%: pest or weed control at 62.5 g/ha [7]
70%: pest or weed control at 250 g/ha [7]
50%: pest or weed control at 62.5 g/ha [8]
0%: pest or weed control at 15.625 g/ha [1] | pest or weed control at 15.625 g/ha [2] | pest or weed control at 15.625 g/ha [3] | pest or weed control at 62.5 g/ha [3] | pest or weed control at 250 g/ha [3] | pest or weed control at 15.625 g/ha [4] | pest or weed control at 62.5 g/ha [4] | pest or weed control at 250 g/ha [4] | plant injury at 15.625 g/ha [5] | plant injury at 62.5 g/ha [5] | plant injury at 250 g/ha [5] | pest or weed control at 15.625 g/ha [6] | pest or weed control at 62.5 g/ha [6] | pest or weed control at 250 g/ha [6] | pest or weed control at 15.625 g/ha [7] | pest or weed control at 15.625 g/ha [9] | pest or weed control at 62.5 g/ha [9] | pest or weed control at 250 g/ha [9] | pest or weed control at 15.625 g/ha [10] | pest or weed control at 62.5 g/ha [10] | pest or weed control at 250 g/ha [10] | plant injury at 15.625 g/ha [11] | plant injury at 62.5 g/ha [11] | plant injury at 250 g/ha [11] | pest or weed control at 15.625 g/ha [12] | pest or weed control at 62.5 g/ha [12] | pest or weed control at 250 g/ha [12]
20%: pest or weed control at 62.5 g/ha [2] | pest or weed control at 15.625 g/ha [8]
40%: pest or weed control at 62.5 g/ha [1]
80%: pest or weed control at 250 g/ha [1] | pest or weed control at 250 g/ha [2]
90%: pest or weed control at 250 g/ha [8]

CN1C[C@H](c2ccc(C(F)(F)F)cc2)[C@@H](C(=O)Nc2cc(C#N)ccn2)C1=O (racemic) [Compound 1734]
0%: pest or weed control at 15.625 g/ha [1] | pest or weed control at 62.5 g/ha [1] | pest or weed control at 250 g/ha [1] | pest or weed control at 15.625 g/ha [2] | pest or weed control at 62.5 g/ha [2] | pest or weed control at 250 g/ha [2] | pest or weed control at 15.625 g/ha [3] | pest or weed control at 62.5 g/ha [3] | pest or weed control at 250 g/ha [3] | pest or weed control at 15.625 g/ha [4] | pest or weed control at 62.5 g/ha [4] | pest or weed control at 250 g/ha [4] | plant injury at 15.625 g/ha [5] | plant injury at 62.5 g/ha [5] | plant injury at 250 g/ha [5] | pest or weed control at 15.625 g/ha [6] | pest or weed control at 62.5 g/ha [6] | pest or weed control at 250 g/ha [6] | pest or weed control at 15.625 g/ha [7] | pest or weed control at 62.5 g/ha [7] | pest or weed control at 250 g/ha [7] | pest or weed control at 15.625 g/ha [8] | pest or weed control at 62.5 g/ha [8] | pest or weed control at 15.625 g/ha [9] | pest or weed control at 62.5 g/ha [9] | pest or weed control at 250 g/ha [9] | pest or weed control at 15.625 g/ha [10] | pest or weed control at 62.5 g/ha [10] | pest or weed control at 250 g/ha [10] | plant injury at 15.625 g/ha [11] | plant injury at 62.5 g/ha [11] | plant injury at 250 g/ha [11] | pest or weed control at 15.625 g/ha [12] | pest or weed control at 62.5 g/ha [12] | pest or weed control at 250 g/ha [12]
10%: pest or weed control at 250 g/ha [8]

C=C(C)c1ccccc1NC(=O)[C@H]1C(=O)N(C)C[C@@H]1c1cccc(C(F)(F)F)c1 (racemic) [Compound 1736]
10%: pest or weed control at 62.5 g/ha [10] | pest or weed control at 250 g/ha [10] | pest or weed control at 250 g/ha [12]
20%: pest or weed control at 62.5 g/ha [12]
0%: pest or weed control at 15.625 g/ha [1] | pest or weed control at 15.625 g/ha [3] | pest or weed control at 62.5 g/ha [3] | pest or weed control at 15.625 g/ha [4] | pest or weed control at 62.5 g/ha [4] | pest or weed control at 250 g/ha [4] | plant injury at 15.625 g/ha [5] | plant injury at 62.5 g/ha [5] | pest or weed control at 15.625 g/ha [6] | pest or weed control at 62.5 g/ha [6] | pest or weed control at 250 g/ha [6] | pest or weed control at 15.625 g/ha [7] | pest or weed control at 15.625 g/ha [9] | pest or weed control at 62.5 g/ha [9] | pest or weed control at 250 g/ha [9] | pest or weed control at 15.625 g/ha [10] | plant injury at 15.625 g/ha [11] | plant injury at 62.5 g/ha [11] | pest or weed control at 15.625 g/ha [12]
30%: pest or weed control at 62.5 g/ha [1] | pest or weed control at 15.625 g/ha [2]
80%: pest or weed control at 62.5 g/ha [2] | pest or weed control at 250 g/ha [2] | pest or weed control at 15.625 g/ha [8]
70%: pest or weed control at 250 g/ha [1] | plant injury at 250 g/ha [5]
90%: pest or weed control at 250 g/ha [7] | pest or weed control at 62.5 g/ha [8] | pest or weed control at 250 g/ha [8]
60%: pest or weed control at 62.5 g/ha [7] | plant injury at 250 g/ha [11]
40%: pest or weed control at 250 g/ha [3]
